Ten compounds from patent US20250320193A1, “OXOISOINDOLINYL SUBSTITUTED PIPERIDINEDIONE DERIVATIVE AND USE THEREOF” (GLUETACS THERAPEUTICS (SHANGHAI) CO., LTD., priority 2022, published 2025) can be followed below.

Bounds are passed on as bounds.

The target of assay [1] is human Cereblon WT GST-tagged protein (Homo sapiens (Human), UniProt Q96SW2). The assay can be described thus: CRBN-binding affinity, HTRF (CEREBLON BINDING kit, CISBIO). To be noted: HTRF inhibitory activity. The essentials:
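Compounds were mixed with GST-tagged human Cereblon WT protein, then with Thalidomide-Red tracer and GST Eu antibody, and binding was read by HTRF. Inhibition rate was calculated from 620 nm emission relative to blank control wells (no protein) and solvent control wells.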
A general note: TR-FRET usually uses a lanthanide donor and a delayed reading to cut background.

The subject of assay [2] is CCRF-CEM (human acute lymphoblastic leukemia T-cells). The assay can be described thus: Tumor cell proliferation inhibition, CCK-8. Type of assay: cell-based. As to conditions: CCRF-CEM cells, CCK-8, read-out: inhibitory activity (IC50, nM) CCRF-CEM. Summed up: (§1)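 Growth inhibition is measured by CCK-8 cell viability; IC50 is calculated from the dose–response curve. Compounds are added 24 h after seeding, starting at 10 μM and diluted 5-fold across 10 concentrations.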

Assay [3] deals with GSPT1 (Homo sapiens (Human), UniProt P15170+Q96SW2). Kind of assay: Western blot, substrate protein expression in hPBMC: GSPT1. To be noted: hPBMC, compound 500 nM, 24 hours, Western blot. Type of assay: cell-based. Summed up: (§2)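 hPBMC, 1×10^6 cells/mL, 24 h compound exposure; RIPA lysis, BCA protein assay, SDS-PAGE, NC membrane immunoblot. Densitometry vs internal control → % protein remaining; degradation % = 100% − remaining; DC50 = conc. at 50% of DMSO band signal.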
Chain of GSPT1 (P15170 whole entry): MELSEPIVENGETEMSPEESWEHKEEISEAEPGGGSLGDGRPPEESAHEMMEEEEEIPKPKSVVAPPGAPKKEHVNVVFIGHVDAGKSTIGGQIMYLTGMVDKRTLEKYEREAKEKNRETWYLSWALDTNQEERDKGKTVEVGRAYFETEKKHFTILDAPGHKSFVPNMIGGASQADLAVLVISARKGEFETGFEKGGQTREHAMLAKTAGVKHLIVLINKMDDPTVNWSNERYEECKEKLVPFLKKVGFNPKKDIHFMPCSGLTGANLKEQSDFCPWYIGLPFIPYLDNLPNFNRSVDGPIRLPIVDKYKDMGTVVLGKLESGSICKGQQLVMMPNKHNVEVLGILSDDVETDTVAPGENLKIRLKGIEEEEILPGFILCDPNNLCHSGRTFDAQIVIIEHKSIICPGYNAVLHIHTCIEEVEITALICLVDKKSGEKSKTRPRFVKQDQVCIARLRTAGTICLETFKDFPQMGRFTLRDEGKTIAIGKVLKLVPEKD
Chain of GSPT1 (Q96SW2 whole entry): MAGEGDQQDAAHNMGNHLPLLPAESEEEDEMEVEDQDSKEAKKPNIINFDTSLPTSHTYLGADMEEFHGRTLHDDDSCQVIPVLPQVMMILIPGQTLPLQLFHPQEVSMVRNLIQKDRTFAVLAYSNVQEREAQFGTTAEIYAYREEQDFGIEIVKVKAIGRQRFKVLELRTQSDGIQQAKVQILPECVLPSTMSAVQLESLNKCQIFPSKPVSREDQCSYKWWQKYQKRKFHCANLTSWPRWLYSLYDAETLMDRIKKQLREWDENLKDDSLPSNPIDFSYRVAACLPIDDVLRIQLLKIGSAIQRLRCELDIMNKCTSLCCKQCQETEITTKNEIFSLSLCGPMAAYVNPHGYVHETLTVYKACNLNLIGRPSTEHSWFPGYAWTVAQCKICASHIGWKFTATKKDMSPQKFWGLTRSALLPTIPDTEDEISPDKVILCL
Chain of GSPT1 (Q16531 whole entry partner): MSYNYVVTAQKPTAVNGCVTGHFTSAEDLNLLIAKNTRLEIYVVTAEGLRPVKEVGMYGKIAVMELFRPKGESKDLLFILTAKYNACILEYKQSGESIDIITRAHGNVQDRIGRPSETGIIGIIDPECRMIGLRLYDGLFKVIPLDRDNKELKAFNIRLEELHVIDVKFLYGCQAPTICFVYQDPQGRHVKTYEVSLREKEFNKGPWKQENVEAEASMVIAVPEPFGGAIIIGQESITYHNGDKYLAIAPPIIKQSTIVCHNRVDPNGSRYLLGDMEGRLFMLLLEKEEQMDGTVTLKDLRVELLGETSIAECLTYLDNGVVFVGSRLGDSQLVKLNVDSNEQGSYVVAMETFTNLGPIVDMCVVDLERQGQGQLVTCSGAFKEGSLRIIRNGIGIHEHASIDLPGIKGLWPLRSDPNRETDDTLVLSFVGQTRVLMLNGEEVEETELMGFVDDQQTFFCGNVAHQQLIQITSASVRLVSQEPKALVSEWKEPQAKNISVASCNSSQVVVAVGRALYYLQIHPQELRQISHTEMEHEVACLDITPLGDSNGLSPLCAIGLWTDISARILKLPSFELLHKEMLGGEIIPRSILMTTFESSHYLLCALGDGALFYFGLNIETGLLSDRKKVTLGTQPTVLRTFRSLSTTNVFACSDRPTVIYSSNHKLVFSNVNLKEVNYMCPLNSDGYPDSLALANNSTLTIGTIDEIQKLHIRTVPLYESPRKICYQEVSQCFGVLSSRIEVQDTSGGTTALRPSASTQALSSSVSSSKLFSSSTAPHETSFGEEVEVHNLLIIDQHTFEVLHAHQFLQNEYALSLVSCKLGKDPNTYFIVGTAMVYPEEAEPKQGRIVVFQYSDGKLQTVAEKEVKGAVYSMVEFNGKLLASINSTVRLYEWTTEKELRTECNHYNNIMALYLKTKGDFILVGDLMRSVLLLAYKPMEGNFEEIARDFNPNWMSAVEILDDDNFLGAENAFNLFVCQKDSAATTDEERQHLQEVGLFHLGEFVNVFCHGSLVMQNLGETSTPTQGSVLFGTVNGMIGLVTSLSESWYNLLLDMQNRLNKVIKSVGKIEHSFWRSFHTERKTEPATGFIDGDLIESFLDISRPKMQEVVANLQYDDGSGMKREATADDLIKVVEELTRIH
Background: Immunoblotting shows a protein as a band on a membrane.

Assay [4] has as its system CAL-62 (human thyroid carcinoma cells). Kind of assay: Tumor cell proliferation inhibition, CCK-8. Type of assay: cell-based. To be noted: CAL-62 cells, CCK-8, read-out: inhibitory activity (IC50, nM) CAL-62. Summed up: as §1
For assay [5], the system named is MM.1S cells (human multiple myeloma cells). Kind of assay: Tumor cell proliferation inhibition, CCK-8. Type of assay: cell-based. To be noted: MM1.S, MM.1S cells, CCK-8, read-out: inhibitory activity (IC50, nM) MM.1S. Summed up: as §1
The test system of assay [6] is TMD8 cells (human diffuse large B-cell lymphoma cells). Kind of assay: Tumor cell proliferation inhibition, CCK-8. Type of assay: cell-based. To be noted: TMD8 cells, CCK-8, read-out: inhibitory activity (IC50, nM) TMD8. The essentials:
as §1

Assay [7] relates to Jurkat cells (human T-cell leukemia cells). Kind of assay: Tumor cell proliferation inhibition, CCK-8. Type of assay: cell-based. To be noted: Jurkat cells, CCK-8, read-out: inhibitory activity (IC50, nM) Jurkat. Summed up: as §1
Assay [8] has as its target IKZF1 (Homo sapiens (Human), UniProt Q13422+Q96SW2). Kind of assay: Western blot, substrate protein expression in hPBMC: IKZF1. Type of assay: cell-based. As to conditions: hPBMC, compound 500 nM, 24 hours, Western blot. The essentials:
as §2

Assay [9] concerns the target IKZF3 (Homo sapiens (Human), UniProt Q96SW2+Q9UKT9). The assay can be described thus: Western blot, substrate protein expression in hPBMC: IKZF3. To be noted: hPBMC, compound 500 nM, 24 hours, Western blot. Type of assay: cell-based. The essentials: as §2
Assay [10] has as its system H146 cells (human small cell lung carcinoma cells). The assay can be described thus: Tumor cell proliferation inhibition, CCK-8. Type of assay: cell-based. To be noted: NCI-H146, H146 cells, CCK-8, read-out: inhibitory activity (IC50, nM) H146. Summed up:
as §1

Assay [11] concerns MDA-MB-231 cells (human breast adenocarcinoma cells). Kind of assay: Tumor cell proliferation inhibition, CCK-8. Type of assay: cell-based. To be noted: MDA-MB-231 cells, CCK-8, read-out: inhibitory activity (IC50, nM) MDA-MB-231. Summed up: as §1

Chain of IKZF1 (Q13422 whole entry): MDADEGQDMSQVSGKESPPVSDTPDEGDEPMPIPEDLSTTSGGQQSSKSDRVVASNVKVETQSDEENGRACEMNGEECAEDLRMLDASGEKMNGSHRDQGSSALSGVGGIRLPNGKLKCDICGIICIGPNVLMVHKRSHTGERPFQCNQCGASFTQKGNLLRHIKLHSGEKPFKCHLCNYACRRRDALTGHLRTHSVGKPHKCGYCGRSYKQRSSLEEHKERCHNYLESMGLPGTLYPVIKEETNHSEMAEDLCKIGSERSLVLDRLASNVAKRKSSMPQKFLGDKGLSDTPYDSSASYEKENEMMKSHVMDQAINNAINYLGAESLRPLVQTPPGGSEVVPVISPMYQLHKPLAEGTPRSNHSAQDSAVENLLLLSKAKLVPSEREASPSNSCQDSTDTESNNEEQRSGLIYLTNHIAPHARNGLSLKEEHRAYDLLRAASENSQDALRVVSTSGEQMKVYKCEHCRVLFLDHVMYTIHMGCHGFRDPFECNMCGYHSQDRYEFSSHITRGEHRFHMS
Chain of IKZF1 (Q96SW2 whole entry): as the sequence (Q96SW2 whole entry) above
Chain of IKZF1 (Q16531 whole entry partner): as the sequence (Q16531 whole entry partner) above
Chain of IKZF3 (Q9UKT9 whole entry): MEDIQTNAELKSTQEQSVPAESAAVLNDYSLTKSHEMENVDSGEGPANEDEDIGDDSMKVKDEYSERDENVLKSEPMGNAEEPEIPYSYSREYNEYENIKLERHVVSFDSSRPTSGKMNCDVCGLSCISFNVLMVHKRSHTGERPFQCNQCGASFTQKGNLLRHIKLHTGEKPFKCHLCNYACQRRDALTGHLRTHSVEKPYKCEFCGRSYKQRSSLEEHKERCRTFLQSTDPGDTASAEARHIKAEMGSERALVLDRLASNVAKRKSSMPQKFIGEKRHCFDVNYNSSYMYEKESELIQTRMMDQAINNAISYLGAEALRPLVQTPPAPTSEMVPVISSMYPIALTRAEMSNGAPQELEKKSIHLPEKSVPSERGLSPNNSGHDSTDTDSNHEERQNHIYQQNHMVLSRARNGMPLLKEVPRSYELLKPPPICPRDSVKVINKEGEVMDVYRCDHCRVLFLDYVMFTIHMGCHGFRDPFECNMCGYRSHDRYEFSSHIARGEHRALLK
Chain of IKZF3 (Q96SW2 whole entry): as the sequence (Q96SW2 whole entry) above
Chain of IKZF3 (Q16531 whole entry partner): as the sequence (Q16531 whole entry partner) above
Chain of human Cereblon WT GST-tagged protein (Q96SW2 whole entry): as the sequence (Q96SW2 whole entry) above

One may read the IC50 as the point on the concentration scale where inhibition reaches its midpoint. Regarding `O=C1CCC(N2Cc3cc(CN4C5CCC4CN(C(c4ccccc4)c4ccccc4)C5)cc(F)c3C2=O)C(=O)N1` (stereo not drawn) [GT-03840, 3-(5-((3-benzhydryl-3,8-diazabicyclo[3.2.1]octan-8-yl)methyl)-7-fluoro-1-oxoisoindolin-2-yl)piperidine-2,6-dione], the IC50 is 1000 to 1900 nM in assay [1] and 10 to 50 nM in [2].

As for `O=C1CCC(N2Cc3cc(CN4CCN(C(c5ccccc5)c5ccncc5)CC4)ccc3C2=O)C(=O)N1` (stereo not drawn) [GT-04205, 3-(1-oxo-5-((4-(phenyl(pyridin-4-yl)methyl)piperazin-1-yl)methyl)isoindolin-2-yl)piperidine-2,6-dione], in assay [3], the “substrate protein remaining % GSPT1” value was “A (A represents 0% ≤ substrate protein remaining % ≤ 50%)”. The IC50 in [1] was less than 500 nM; in assay [4] it was 10 to 50 nM; in assay [2] it was 50 to 100 nM; in assay [5] it was 100 to 500 nM; in [6], 50 to 100 nM; in assay [7], 500 to 1000 nM. For the same compound, in assay [8], the “substrate protein remaining % IKZF1” value is “A (A represents 0% ≤ substrate protein remaining % ≤ 50%)”. Also, the “substrate protein remaining % IKZF3” value in assay [9] is given as “A (A represents 0% ≤ substrate protein remaining % ≤ 50%)”.

For `O=C1CCC(N2Cc3cc(CN4CCC(N(c5ccccc5)c5ccccc5)CC4)ccc3C2=O)C(=O)N1` (stereo not drawn) [GT-04225, 3-(5-((4-(diphenylamino)piperidin-1-yl)methyl)-1-oxoisoindolin-2-yl)piperidine-2,6-dione], in assay [3], the “substrate protein remaining % GSPT1” value is reported as “A (A represents 0% ≤ substrate protein remaining % ≤ 50%)”. Further, the IC50 in assay [1] was less than 500 nM; in assay [10], 1 to 10 nM; in assay [11] it was 1 to 10 nM; in assay [4], less than 1 nM; in [2], less than 1 nM; in assay [5], less than 1 nM. Further, the IC50 in assay [6] was 1 to 10 nM; in assay [7] it was less than 1 nM. For the same compound, the “substrate protein remaining % IKZF1” value in assay [8] is given as “A (A represents 0% ≤ substrate protein remaining % ≤ 50%)”. Besides, in assay [9], the “substrate protein remaining % IKZF3” value was “A (A represents 0% ≤ substrate protein remaining % ≤ 50%)”.

For the compound `O=C1CCC(N2Cc3c(ccc(CN4CCC(N(c5ccccc5)c5ccccc5)CC4)c3F)C2=O)C(=O)N1` (stereo not drawn) [GT-04226, 3-(5-((4-(diphenylamino)piperidin-1-yl)methyl)-4-fluoro-1-oxoisoindolin-2-yl)piperidine-2,6-dione], the “substrate protein remaining % GSPT1” value in assay [3] is “A (A represents 0% ≤ substrate protein remaining % ≤ 50%)”. The 50% inhibitory concentration (IC50) in assay [1] was less than 500 nM; in assay [10] it was 1 to 10 nM; in assay [11], 1 to 10 nM; in assay [4], less than 1 nM; in assay [2], less than 1 nM; in [5], less than 1 nM. Moreover, the IC50 in [6] was 1 to 10 nM; in assay [7] it was less than 1 nM. In addition, in assay [8], the “substrate protein remaining % IKZF1” value is “A (A represents 0% ≤ substrate protein remaining % ≤ 50%)”. Besides, the “substrate protein remaining % IKZF3” value in assay [9] is reported as “A (A represents 0% ≤ substrate protein remaining % ≤ 50%)”.

`O=C1CCC(N2Cc3cc(CN4CCC(N(c5ccccc5)c5ccccc5)CC4)c(F)cc3C2=O)C(=O)N1` (stereo not drawn) [GT-04227, 3-(5-((4-(diphenylamino)piperidin-1-yl)methyl)-6-fluoro-1-oxoisoindolin-2-yl)piperidine-2,6-dione]: in assay [3], the “substrate protein remaining % GSPT1” value is listed as “A (A represents 0% ≤ substrate protein remaining % ≤ 50%)”. In addition, the IC50 is 500 to 1000 nM in assay [1]; 1 to 10 nM in assay [10]; 1 to 10 nM in assay [11]; less than 1 nM in assay [4]; less than 1 nM in [2]; less than 1 nM in assay [5]. Moreover, the IC50 in assay [6] was 1 to 10 nM; in assay [7], less than 1 nM. Also, the “substrate protein remaining % IKZF1” value in [8] was “A (A represents 0% ≤ substrate protein remaining % ≤ 50%)”. Moreover, the “substrate protein remaining % IKZF3” value in assay [9] was “A (A represents 0% ≤ substrate protein remaining % ≤ 50%)”.

In the case of `O=C1CCC(N2Cc3c(ccc(CN4CCN(C(c5ccccc5)c5ccncc5)CC4)c3F)C2=O)C(=O)N1` (stereo not drawn) [GT-04247, 3-(4-fluoro-1-oxo-5-((4-(phenyl(pyridin-4-yl)methyl)piperazin-1-yl)methyl)isoindolin-2-yl)piperidine-2,6-dione], the “substrate protein remaining % GSPT1” value in assay [3] was “A (A represents 0% ≤ substrate protein remaining % ≤ 50%)”. Besides, the IC50 in assay [1] is less than 500 nM; in assay [4], 50 to 100 nM; in [2], 50 to 100 nM; in [5], 100 to 500 nM. Also, in assay [8], the “substrate protein remaining % IKZF1” value is reported as “A (A represents 0% ≤ substrate protein remaining % ≤ 50%)”. Besides, in assay [9], the “substrate protein remaining % IKZF3” value is “A (A represents 0% ≤ substrate protein remaining % ≤ 50%)”.

Regarding `O=C1CCC(N2Cc3cc(CN4CCN(C(c5ccccc5)c5ccncc5)CC4)c(F)cc3C2=O)C(=O)N1` (stereo not drawn) [GT-04248, 3-(6-fluoro-1-oxo-5-((4-(phenyl(pyridin-4-yl)methyl)piperazin-1-yl)methyl)isoindolin-2-yl)piperidine-2,6-dione], the “substrate protein remaining % GSPT1” value in [3] is “A (A represents 0% ≤ substrate protein remaining % ≤ 50%)”. Also, the IC50 is 500 to 1000 nM in [1]; 100 to 500 nM in assay [10]; 100 to 500 nM in assay [11]; 10 to 50 nM in assay [4]; 10 to 50 nM in [2]; 50 to 100 nM in [5]. In addition, in assay [7], the IC50 lay in the range of 50 to 100 nM. In addition, the “substrate protein remaining % IKZF1” value in assay [8] is recorded as “A (A represents 0% ≤ substrate protein remaining % ≤ 50%)”. The “substrate protein remaining % IKZF3” value in assay [9] is “B (B represents substrate protein remaining % > 50%)”.

Consider `O=C1CCC(N2Cc3cc(CN4CCN(C(c5ccccc5)c5cccnc5)CC4)ccc3C2=O)C(=O)N1` (stereo not drawn) [GT-04249, 3-(1-oxo-5-((4-(phenyl(pyridin-3-yl)methyl)piperazin-1-yl)methyl)isoindolin-2-yl)piperidine-2,6-dione], for which the “substrate protein remaining % GSPT1” value in assay [3] is reported as “A (A represents 0% ≤ substrate protein remaining % ≤ 50%)”. In addition, the half-inhibitory concentration (IC50) is less than 500 nM in assay [1]; 10 to 50 nM in [4]; 10 to 50 nM in assay [2]; 500 to 1000 nM in assay [5]; 100 to 500 nM in [6]. For the same compound, in assay [8], the “substrate protein remaining % IKZF1” value is reported as “A (A represents 0% ≤ substrate protein remaining % ≤ 50%)”. Also, the “substrate protein remaining % IKZF3” value in assay [9] is listed as “A (A represents 0% ≤ substrate protein remaining % ≤ 50%)”.

As for `O=C1CCC(N2Cc3c(ccc(CN4CCN(C(c5ccccc5)c5cccnc5)CC4)c3F)C2=O)C(=O)N1` (stereo not drawn) [GT-04250, 3-(4-fluoro-1-oxo-5-((4-(phenyl(pyridin-3-yl)methyl)piperazin-1-yl)methyl)isoindolin-2-yl)piperidine-2,6-dione], the “substrate protein remaining % GSPT1” value in [3] was “A (A represents 0% ≤ substrate protein remaining % ≤ 50%)”. The IC50 was less than 500 nM in assay [1], 50 to 100 nM in assay [4], 50 to 100 nM in [2] and 100 to 500 nM in assay [5]. Also, in assay [8], the “substrate protein remaining % IKZF1” value is given as “A (A represents 0% ≤ substrate protein remaining % ≤ 50%)”. Moreover, the “substrate protein remaining % IKZF3” value in [9] is “A (A represents 0% ≤ substrate protein remaining % ≤ 50%)”.

For the compound `O=C1CCC(N2Cc3cc(C(=O)N4CCN(C(c5cc(F)cc(F)c5)c5cc(F)cc(F)c5)CC4)ccc3C2=O)C(=O)N1` (stereo not drawn) [GT-06597, 3-(5-(4-(bis(3,5-difluorophenyl)methyl)piperazine-1-carbonyl)-1-oxoisoindolin-2-yl)piperidine-2,6-dione], the “substrate protein remaining % GSPT1” value in assay [3] is reported as “A (A represents 0% ≤ substrate protein remaining % ≤ 50%)”. Besides, the IC50 in [1] fell in the range of 500 to 1000 nM; in [10] it was 10 to 50 nM; in [11] it was 50 to 100 nM; in assay [5] it was 10 to 50 nM; in assay [6] it was 100 to 500 nM. In assay [8], the “substrate protein remaining % IKZF1” value is “A (A represents 0% ≤ substrate protein remaining % ≤ 50%)”. In addition, the “substrate protein remaining % IKZF3” value in assay [9] is recorded as “A (A represents 0% ≤ substrate protein remaining % ≤ 50%)”.
